Assay results: PubChem BioAssay (NCI)
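Cells were grown in 96-well plates and exposed to each compound for 48 hours at five concentrations; endpoints were interpolated linearly between bracketing concentrations, or set to the highest concentration if not reached. GI50 is the concentration that inhibits growth by half. Definition used: TGI = concentration required for complete inhibition of growth.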

Key:
Experiment in all cases: DTP human tumour cell line panel, 48 h
PC-3 prostate = system: PC-3 prostate
SK-MEL-5 melanoma = system: SK-MEL-5 melanoma
SF-539 CNS = system: SF-539 CNS
A549 NSCLC = system: A549 NSCLC
HCT-116 colon = system: HCT-116 colon
HT29 colon = system: HT29 colon
NCI/ADR-RES ovarian = system: NCI/ADR-RES ovarian
OVCAR-4 ovarian = system: OVCAR-4 ovarian
SK-MEL-2 melanoma = system: SK-MEL-2 melanoma
U251 CNS = system: U251 CNS

SMILES | GI50 (PC-3 prostate) | TGI (PC-3 prostate) | GI50 (SK-MEL-5 melanoma) | TGI (SK-MEL-5 melanoma) | GI50 (SF-539 CNS) | TGI (SF-539 CNS) | GI50 (A549 NSCLC) | TGI (A549 NSCLC) | GI50 (HCT-116 colon) | TGI (HCT-116 colon) | GI50 (HT29 colon) | TGI (HT29 colon) | GI50 (NCI/ADR-RES ovarian) | TGI (NCI/ADR-RES ovarian) | GI50 (OVCAR-4 ovarian) | TGI (OVCAR-4 ovarian) | GI50 (SK-MEL-2 melanoma) | TGI (SK-MEL-2 melanoma) | GI50 (U251 CNS) | TGI (U251 CNS)
C[C@@]1(O)CCC[C@H]1n1c(=O)c(C(F)F)cc2cnc(NC3CCN(S(C)(=O)=O)CC3)nc21 | 2.1 µM | > 100 µM | 1.15 µM | 7.91 µM | 1.17 µM | 3.45 µM | 1.66 µM | > 100 µM | 1.05 µM | > 100 µM | 1.27 µM | > 100 µM | 12.7 µM | > 100 µM | 1.76 µM | > 100 µM | 2.28 µM | 6.34 µM | 1.67 µM | > 100 µM
COc1cc2c(cc1OC)-c1ncc3cc(OC)c(OC)cc3c1C2 | > 50 µM | > 50 µM | > 50 µM | > 50 µM | > 50 µM | > 50 µM | > 50 µM | > 50 µM | > 50 µM | > 50 µM | > 50 µM | > 50 µM | > 50 µM | > 50 µM | > 50 µM | > 50 µM | > 50 µM | > 50 µM | > 50 µM | > 50 µM
Cc1cc(C)c(O)c(CNCCCNCc2cc(C)cc(C)c2O)c1 | 6.69 µM | 19.8 µM | 1.57 µM | 2.93 µM | 1.59 µM | 3.11 µM | 11 µM | 24.6 µM | 2.99 µM | 9.49 µM | 3.02 µM | 10.7 µM | 2.17 µM | 5.75 µM | 3.7 µM | 16.1 µM | 2.15 µM | 4.5 µM | 1.95 µM | 3.89 µM
COC(=O)CCCNC(=O)C(=O)c1c(O)c(O)c(C(C)C)c2cc(C)c(-c3c(C)cc4c(C(C)C)c(O)c(O)c(C(=O)C(=O)NCCCC(=O)OC)c4c3O)c(O)c12 | 0.258 µM | 8.65 µM | 1.24 µM | 4.7 µM | 0.997 µM | 5.17 µM | 0.255 µM | 4.01 µM | 0.156 µM | 2.31 µM | 0.542 µM | 3.81 µM | 0.834 µM | 16.6 µM | 0.23 µM | 27 µM | 0.858 µM | 2.93 µM | 0.298 µM | 2.31 µM
COCC(=O)NC/C=C/c1ccc2ncnc(Nc3ccc(Oc4ccc(C)nc4)c(C)c3)c2c1 | 15.5 µM | > 83.1 µM | 3.26 µM | 13 µM | 15.1 µM | 31.7 µM | 13.8 µM | > 100 µM | 13.7 µM | 30.9 µM | 15.5 µM | 39.4 µM | 17.2 µM | 88.8 µM | 4.83 µM | 31.1 µM | 18.5 µM | 41.7 µM | 13.2 µM | 31.9 µM
CCCc1n(Cc2ccc3ccccc3n2)cc[n+]1Cc1ccc2ccccc2c1 | 0.487 µM | 4.96 µM | 0.466 µM | 1.69 µM | 0.861 µM | 10.4 µM | 1.88 µM | 11.8 µM | 1.06 µM | 7.05 µM | 0.409 µM | 2.07 µM | 32.8 µM | > 100 µM | 0.357 µM | 6.59 µM | 1.06 µM | 2.85 µM | 0.38 µM | 2.54 µM
CN1CCN(Cc2ccc(NC(=O)c3cccc(C#Cc4c(N)ncc5ccc(F)cc45)c3)cc2C(F)(F)F)CC1 | 0.852 µM | 1.86 µM | 0.896 µM | 1.68 µM | 0.548 µM | 1.19 µM | 0.877 µM | 1.77 µM | 0.816 µM | 1.61 µM | 0.391 µM | 1.87 µM | 1.02 µM | 2.55 µM | 0.511 µM | 1.77 µM | 0.923 µM | 2.09 µM | 0.833 µM | 1.6 µM
C[C@@H]1OC(=O)NN=C1c1ccc(-c2ccc(F)cc2)c(C(F)(F)F)c1 | 10.5 µM | 26.8 µM | 2.28 µM | 9.01 µM | 11.2 µM | 24.3 µM | 8.21 µM | 22.8 µM | 5.27 µM | 20.6 µM | 10.3 µM | 25.4 µM | 5.08 µM | 21.2 µM | 6.36 µM | 20.6 µM | 0.141 µM | 13.1 µM | 10.2 µM | 23.3 µM
O=C(Nc1ccc(N2CCNCC2)cn1)c1[nH]ncc1Nc1ncnc2sccc12 | 1.59 µM | 3.65 µM | 1.71 µM | 3.26 µM | 1.69 µM | 3.39 µM | 1.66 µM | 3.45 µM | 1.15 µM | 3.09 µM | 1.91 µM | 3.97 µM | > 100 µM | > 100 µM | 1.69 µM | 3.63 µM | 7.72 µM | 25.9 µM | 1.62 µM | 3.35 µM
O=C1c2ccccc2-c2c1c1ccc([N+](=O)[O-])cc1c(=O)n2CCCn1ccnc1 | 0.832 µM | 14.3 µM | < 0.019 µM | 0.104 µM | 0.0149 µM | 0.0838 µM | 3.17 µM | 21.9 µM | 0.0763 µM | 0.652 µM | < 0.0418 µM | 10.9 µM | 0.0465 µM | 0.366 µM | 0.943 µM | 13.2 µM | 1.06 µM | 3.27 µM | 0.157 µM | 0.69 µM
CCN(CC)c1ccc(/C=N/NC(=O)c2ccccc2Nc2ccnc(C(F)(F)F)c2)c(O)c1 | 0.997 µM | > 100 µM | 0.143 µM | 0.723 µM | 0.248 µM | – | 0.235 µM | > 100 µM | 0.0895 µM | > 100 µM | 0.362 µM | > 100 µM | 0.273 µM | 14 µM | 0.0856 µM | > 100 µM | 1.29 µM | 97.9 µM | 0.103 µM | > 44.7 µM
NC(Cc1c[nH]c2cc(F)ccc12)C(=O)O (centres undefined) | 1810 µM | > 2500 µM | 557 µM | 1140 µM | 890 µM | > 2500 µM | 1150 µM | > 2500 µM | 1030 µM | > 2500 µM | 850 µM | > 2500 µM | 890 µM | > 2500 µM | > 2500 µM | > 2500 µM | 1910 µM | > 2500 µM | 872 µM | > 2500 µM
